Reference: the NIST ThermoML archive (doi:10.1016/j.jct.2016.08.005)

Conditions: Liquid, Vibrating tube method

c1ccsc1 [thiophene]
mass density [kg/m3]
Conditions | 283.15 K | 288.15 K | 293.15 K | 298.15 K | 303.15 K | 308.15 K
100 kPa | 1076.4 | 1070.54 | 1064.59 | 1058.65 | 1052.71 | 1046.7
2000 kPa | 1077.94 | 1072.11 | 1066.21 | 1060.32 | 1054.43 | 1048.48
5000 kPa | 1080.27 | 1074.53 | 1068.67 | 1062.91 | 1057.07 | 1051.21
7000 kPa | 1081.81 | 1076.12 | 1070.33 | 1064.57 | 1058.82 | 1052.99
10000 kPa | 1084.09 | 1078.46 | 1072.75 | 1067.05 | 1061.36 | 1055.61
15000 kPa | 1087.78 | 1082.24 | 1076.63 | 1071.07 | 1065.48 | 1059.87
20000 kPa | 1091.37 | 1085.9 | 1080.39 | 1074.94 | 1069.46 | 1063.97
25000 kPa | 1094.82 | 1089.45 | 1084.05 | 1078.69 | 1073.3 | 1067.92
30000 kPa | 1098.18 | 1092.91 | 1087.58 | 1082.3 | 1077.03 | 1071.73
35000 kPa | 1101.44 | 1096.24 | 1091.01 | 1085.81 | 1080.62 | 1075.4
40000 kPa | 1104.61 | 1099.5 | 1094.34 | 1089.21 | 1084.1 | 1078.99
45000 kPa | 1107.7 | 1102.65 | 1097.57 | 1092.53 | 1087.49 | 1082.45
50000 kPa | 1110.71 | 1105.72 | 1100.7 | 1095.73 | 1090.79 | 1085.8
55000 kPa | 1113.62 | 1108.7 | 1103.77 | 1098.86 | 1093.96 | 1089.07
60000 kPa | 1116.47 | 1111.61 | 1106.72 | 1101.89 | 1097.06 | 1092.23
65000 kPa | 1119.27 | 1114.44 | 1109.63 | 1104.85 | 1100.09 | 1095.31
